Data on 17 compounds can be found in patent US8435976B2, “4-substituted pyridin-3-yl-carboxamide compounds and methods of use” (F. Hoffmann-La Roche, priority 2009, dated 2013).

In experiment [1] the target is BaF3 PIM1 cells (Homo sapiens, UniProt P11309). Kind of experiment: BaF3 PIM1 cell proliferation (Cell Titer Glo). Type of experiment: cell-based. Conditions: incubated overnight; read-out: Prolif BaF3_PIM1 (IC50). The procedure:
(§1) BaF3 parental line was obtained from the DSMZ repository. BaF3 lines transfected with PIM1 or PIM2 were generated. Mouse IL-3 was purchased from R&D Systems. G418 was purchased from Clontech. Media for BaF3 parental line contained RPMI, 10% FBS, 2 mM L-Glutamine, 2 ng/mL mIL-3. Media for BaF3 PIM1 & 2 lines contained RPMI, 10% FBS, 2 mM L-Glutamine, […]. Media for MM1.S line contained RPMI, 10% FBS, 2 mM L-Glutamine.
(§2) BaF3 parental cells, BaF3 PIM1 cells, BaF3 PIM2 cells, and MM1.S cells were seeded at 2 k/well, 5 k/well, 5 k/well, and 10 k/well respectively, in a 384-well plate, at 45 μL/well. Test compound was added at 5 μL/well. BaF3 cells (parental and transfected) were incubated overnight, while MM1.S cells were incubated for 72 hours at 37° C., 5% CO2. Cell Titer Glo Reagent (Promega) was added at 50 μL/well, the plates were incubated for 30 minutes, and their luminescence read on an HT Analyst. IC50/EC50 values for the test compound were calculated.

Experiment [2] addresses T1, PIM3 (Homo sapiens, UniProt Q86V86).
T1 construct: made in house
Kind of experiment: Pim-3 kinase enzymatic assay (Caliper LC3000, FAM-Pimtide substrate). Type of experiment: biochemical. Conditions: 55 pM PIM3, 10 μM ATP, 90 minutes; read-out: PIM3 LC3K (Ki). The procedure:
(§3) Reaction Buffer contained 10 mM HEPES, pH 7.2, 10 mM MgCl2, 0.01% Tween 20, 2 mM DTT.
(§4) PIM reactions were carried out in a final volume of 10 μL per well in a 384-well plate. […] The separation of product and substrate was optimized by choosing voltages and pressure using Caliper's Optimizer software (Hopkinton, Mass.). The separation conditions used a downstream voltage of −500V, an upstream voltage of −2150V, and a screening pressure of −1.2 psi. […] Substrate conversion was calculated from the electrophoregram using HTS Well Analyzer software (Caliper Life Sciences, Hopkinton, Mass.). Ki values for the test compound were calculated.

The target of experiment [3] is T2, PIM1 (Homo sapiens, UniProt P11309).
T2 construct: made in house
T2 sequence (P11309 whole entry): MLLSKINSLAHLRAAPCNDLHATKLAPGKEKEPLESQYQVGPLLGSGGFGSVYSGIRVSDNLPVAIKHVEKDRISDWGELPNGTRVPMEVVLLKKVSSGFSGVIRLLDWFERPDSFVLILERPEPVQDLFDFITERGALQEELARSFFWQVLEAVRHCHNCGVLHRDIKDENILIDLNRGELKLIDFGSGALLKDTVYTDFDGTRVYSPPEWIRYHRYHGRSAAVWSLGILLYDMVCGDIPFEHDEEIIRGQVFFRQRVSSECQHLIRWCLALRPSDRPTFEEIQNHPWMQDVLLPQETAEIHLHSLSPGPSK
Kind of experiment: Pim-1 kinase enzymatic assay (Caliper LC3000, FAM-Pimtide substrate). Type of experiment: biochemical. Conditions: 20 pM PIM1, 10 μM ATP, 90 minutes; read-out: PIM1 LC3K (Ki). The procedure:
as §3, §4

The target in experiment [4] is T3, PIM2 (Homo sapiens, UniProt Q9P1W9).
T3 construct: made in house
T3 sequence (Q9P1W9 whole entry): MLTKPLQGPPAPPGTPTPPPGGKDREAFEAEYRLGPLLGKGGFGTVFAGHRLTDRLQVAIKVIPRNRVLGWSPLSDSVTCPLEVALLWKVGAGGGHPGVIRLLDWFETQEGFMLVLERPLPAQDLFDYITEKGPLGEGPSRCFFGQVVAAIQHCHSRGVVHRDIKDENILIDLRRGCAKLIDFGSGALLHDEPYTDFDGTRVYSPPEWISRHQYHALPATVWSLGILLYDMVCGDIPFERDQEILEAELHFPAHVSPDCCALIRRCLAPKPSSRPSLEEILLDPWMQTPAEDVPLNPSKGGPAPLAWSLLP
Kind of experiment: Pim-2 kinase enzymatic assay (Caliper LC3000, FAM-Pimtide substrate). Conditions: 50 pM PIM2, 10 μM ATP, 90 minutes; read-out: PIM2 LC3K (Ki). Type of experiment: biochemical. Here is the method:
as §3, §4

In experiment [5] the target is BaF3 PIM2 cells (Homo sapiens, UniProt Q9P1W9). Kind of experiment: BaF3 PIM2 cell proliferation (Cell Titer Glo). The class given is cell-based. Conditions: incubated overnight; read-out: Prolif BaF3_PIM2 (IC50). The procedure: as §1, §2
BaF3 PIM2 cells, sequence (Q9P1W9 whole entry, change not shown): as the sequence (Q9P1W9 whole entry) above
(Cellular ATP, detected with luciferase, serves as a proxy for viable cell number.)

The test system of experiment [6] is MM1.S cells. As to the kind of experiment: MM1.S cell proliferation, 72 hours (Cell Titer Glo). The class given is cell-based. Conditions: Homo sapiens, 72 hours, read-out: Prolif MM1S ATP (EC50). The procedure: as §1, §2

pEC50, pKi: −log10 of the molar value.

BaF3 PIM1 cells, sequence (P11309 whole entry, change not shown): as the sequence (P11309 whole entry) above

For `Nc1sc(-c2ccc(Cl)cc2)nc1C(=O)Nc1cnccc1N1CCC[C@H](N)C1` [Example 12, (S)-5-amino-N-(4-(3-aminopiperidin-1-yl)pyridin-3-yl)-2-(4-chlorophenyl)thiazole-4-carboxamide], the figures for the GI50 in experiment [1] and in experiment [5] were 2300 nM and 4200 nM, respectively. Besides, the pKi (commonly the negative decadic logarithm of the Ki, by convention in mol/L) in experiment [2] was 10.14; in experiment [3] it was 9.76; in experiment [4], 8.97. In addition, the pEC50 – broadly, the negative decadic logarithm of the EC50, by convention in mol/L – in experiment [6] is 5.17.

On to `Nc1sc(-c2ccccc2F)nc1C(=O)Nc1cnccc1N1CCC[C@H](N)C1` [Example 1, (S)-5-amino-N-(4-(3-aminopiperidin-1-yl)pyridin-3-yl)-2-(2-fluorophenyl)thiazole-4-carboxamide], for which the GI50 in experiment [1] worked out at 33.2 nM; in experiment [5] it was 1400 nM. Further, the pKi in experiment [2] was 10.81; in experiment [3] it was 10.65; in experiment [4], 10.17. Moreover, in experiment [6], the pEC50 is 6.97.

In the case of `Nc1sc(-c2c(F)cccc2F)nc1C(=O)Nc1cnccc1N1C[C@@H](N)C[C@@H](F)C1` [Example 63, 5-amino-N-(4-((3S,5R)-3-amino-5-fluoropiperidin-1-yl)pyridin-3-yl)-2-(2,6-difluorophenyl)thiazole-4-carboxamide], the values for the GI50 in experiment [1] and in experiment [5] were 3400 nM and 12900 nM, respectively. Further, the pKi in experiment [2] is 9.61; in experiment [3], 9.36; in experiment [4], 8.41. Further, in experiment [6], the pEC50 is 4.70.

As for `Nc1sc(-c2c(Cl)cccc2Cl)nc1C(=O)Nc1cnccc1N1CCC[C@H](N)C1` [Example 58, (S)-5-amino-N-(4-(3-aminopiperidin-1-yl)pyridin-3-yl)-2-(2,6-dichlorophenyl)thiazole-4-carboxamide], the results for the GI50 in experiment [1] and in experiment [5] were 232 nM and 6500 nM, respectively. In addition, the pKi was 9.26 in experiment [2], 9.05 in experiment [3] and 8.73 in experiment [4]. In experiment [6], the pEC50 was 5.51.

In the case of `Nc1sc(-c2cn[nH]c2)nc1C(=O)Nc1cnccc1N1CCC[C@H](N)C1` [Example 56, (S)-5-amino-N-(4-(3-aminopiperidin-1-yl)pyridin-3-yl)-2-(1H-pyrazol-4-yl)thiazole-4-carboxamide], the figures for the GI50 in experiment [1] and in experiment [5] were 1500 nM and above 20000 nM, respectively. The pKi in experiment [2] was 10.10; in experiment [3], 9.94; in experiment [4] it was 9.18. For the same compound, the pEC50 in experiment [6] is 6.02.

Turning to `Nc1sc(-c2cccc(F)c2F)nc1C(=O)Nc1cnccc1N1CCC[C@H](N)C1` [Example 43, (S)-5-amino-N-(4-(3-aminopiperidin-1-yl)pyridin-3-yl)-2-(2,3-difluorophenyl)thiazole-4-carboxamide], the GI50 stood at 45.5 nM in experiment [1] and 3900 nM in experiment [5]. In addition, the pKi was 10.66 in experiment [2], 10.21 in experiment [3] and 10.73 in experiment [4]. In addition, the pEC50 in experiment [6] was 6.63.

Turning to `N[C@H]1CCCN(c2ccncc2NC(=O)c2csc(-c3ccccc3F)n2)C1` [Example 45, (S)-N-(4-(3-aminopiperidin-1-yl)pyridin-3-yl)-2-(2-fluorophenyl)thiazole-4-carboxamide], the GI50 in experiment [1] amounted to 613 nM; in experiment [5] it was 12500 nM. In addition, the pKi is 9.47 in experiment [2], 9.25 in experiment [3] and 8.56 in experiment [4]. Also, in experiment [6], the pEC50 is 5.26.

With `Nc1sc(-c2c(F)cccc2F)nc1C(=O)Nc1cnccc1N1CCC[C@H](O)C1` [Example 52, (S)-5-amino-2-(2,6-difluorophenyl)-N-(4-(3-hydroxypiperidin-1-yl)pyridin-3-yl)thiazole-4-carboxamide], the values for the GI50 in experiment [1] and in experiment [5] were 2200 nM and above 20000 nM, respectively. Further, the pKi in experiment [2] was 10.21; in experiment [3] it was 10.57; in experiment [4], 9.31. Further, the pEC50 in experiment [6] is 5.89.

Consider `CCCOc1ccc(F)c(-c2nc(C(=O)Nc3cnccc3N3CCC[C@H](N)C3)c(N)s2)c1F` [Example 27, (S)-5-amino-N-(4-(3-aminopiperidin-1-yl)pyridin-3-yl)-2-(3-propyloxy-2,6-difluorophenyl)thiazole-4-carboxamide], for which the GI50 in experiment [1] was 75.7 nM; in experiment [5], 3900 nM. Besides, the values for the pKi in experiment [2], in experiment [3] and in experiment [4] were 10.30, 10.40 and 9.61, respectively. Further, in experiment [6], the pEC50 is 6.25.

For the compound `Nc1sc(-c2cccnc2)nc1C(=O)Nc1cnccc1N1CCC[C@H](N)C1` [Example 11, (S)-5-amino-N-(4-(3-aminopiperidin-1-yl)pyridin-3-yl)-2-(pyridin-3-yl)thiazole-4-carboxamide], the GI50 in experiment [1] was 607 nM; in experiment [5] it was 13200 nM. The pKi in experiment [2] is 9.78; in experiment [3] it was 9.30; in experiment [4], 9.05. Moreover, in experiment [6], the pEC50 is 5.04.

As to `CCNC(=O)Nc1ccc(-c2nc(C(=O)Nc3cnccc3N3CCC[C@H](N)C3)c(N)s2)cc1` [Example 32, (S)-5-amino-N-(4-(3-aminopiperidin-1-yl)pyridin-3-yl)-2-(4-(3-ethylureido)phenyl)thiazole-4-carboxamide], the GI50 was 1700 nM in experiment [1] and above 20000 nM in experiment [5]. For the same compound, the pKi was 10.66 in experiment [2], 10.27 in experiment [3] and 9.90 in experiment [4]. Also, the pEC50 in experiment [6] is 6.19.

As to `NC(=O)c1cccc(-c2nc(C(=O)Nc3cnccc3N3CCC[C@H](N)C3)c(N)s2)c1` [Example 22, (S)-5-amino-N-(4-(3-aminopiperidin-1-yl)pyridin-3-yl)-2-(3-carbamoylphenyl)thiazole-4-carboxamide], the GI50 in experiment [1] was 520 nM; in experiment [5], above 20000 nM. Moreover, the results for the pKi in experiment [2], in experiment [3] and in experiment [4] were 10.28, 10.27 and 9.31, respectively. Further, in experiment [6], the pEC50 is 5.33.

Consider `CN(C)C(=O)c1ccc(F)c(-c2nc(C(=O)Nc3cnccc3N3CCC[C@H](N)C3)c(N)s2)c1` [Example 18, (S)-5-amino-N-(4-(3-aminopiperidin-1-yl)pyridin-3-yl)-2-(5-(dimethylcarbamoyl)-2-fluorophenyl)thiazole-4-carboxamide], for which the GI50 in experiment [1] turned out to be 257 nM; in experiment [5], 12300 nM. Moreover, the results for the pKi in experiment [2], in experiment [3] and in experiment [4] were 10.48, 10.02 and 9.22, respectively. In experiment [6], the pEC50 was 6.12.

For the compound `Cc1cccc(C)c1-c1nc(C(=O)Nc2cnccc2N2CCC[C@H](N)C2)c(N)s1` [Example 54, (S)-5-amino-N-(4-(3-aminopiperidin-1-yl)pyridin-3-yl)-2-(2,6-dimethylphenyl)thiazole-4-carboxamide], the results for the GI50 in experiment [1] and in experiment [5] were 7800 nM and above 20000 nM, respectively. In addition, the values for the pKi in experiment [2], in experiment [3] and in experiment [4] were 7.64, 7.57 and 7.14, respectively. The pEC50 in experiment [6] is 4.80.

In the case of `Nc1sc(-c2c(F)cccc2F)nc1C(=O)Nc1cnccc1N1CCNCC1` [Example 50, 5-amino-2-(2,6-difluorophenyl)-N-(4-(piperazin-1-yl)pyridin-3-yl)thiazole-4-carboxamide], the results for the GI50 in experiment [1] and in experiment [5] were 614 nM and 1400 nM, respectively. Besides, the pKi is 9.48 in experiment [2], 9.30 in experiment [3] and 8.16 in experiment [4]. In addition, the pEC50 in experiment [6] was 6.13.

`Nc1sc(-c2ccc3cccnc3c2)nc1C(=O)Nc1cnccc1N1CCC[C@H](N)C1` [Example 44, (S)-5-amino-N-(4-(3-aminopiperidin-1-yl)pyridin-3-yl)-2-(quinolin-7-yl)thiazole-4-carboxamide]: the GI50 in experiment [1] worked out at 38.1 nM; in experiment [5], 1900 nM. Besides, the pKi in experiment [2] was 9.95; in experiment [3], 10.49; in experiment [4], 9.29. In addition, the pEC50 in experiment [6] was 6.72.

With `Nc1sc(-c2cc(F)ccc2F)nc1C(=O)Nc1cnccc1N1CCC[C@H](N)C1` [Example 41, (S)-5-amino-N-(4-(3-aminopiperidin-1-yl)pyridin-3-yl)-2-(2,5-difluorophenyl)thiazole-4-carboxamide], the GI50 in experiment [1] was 69 nM; in experiment [5], 3900 nM. For the same compound, the pKi in experiment [2] is 10.66; in experiment [3], 10.31; in experiment [4] it was 9.68. In experiment [6], the pEC50 is 5.70.
